Reference: patent US20200247812A1 (Integral Biosciences Private Limited, priority 2018, published 2020)
Counter-ions that a name gives are not always drawn.

Tests used:
MDA_MB-231 = experiment: Cell viability assay (resazurin), MDA_MB-231; format: cell-based; conditions: Homo sapiens, MDA-MB-231, 72-144 hr
Procedure: (§1) Different cell lines such as pancreatic, (MIA PaCa-2; ATCC®CRL-1420™ & and Panc-1; CRL-1469™), liver carcinoma (HepG2; ATCC® HB-8065™), lung epithelial carcinoma (A549; ATCC® CCL-185™) and others were seeded in their respective medium (DMEM, Cat #10569044, MEM, Cat #41090036; RPMI, Cat #22400089; all with 10% FBS, Gibco, ThermoFisher) at a cell count of 3000 cells per 100 μl per well in a 96 well edge plate (167425; ThermoFisher). Cells were allowed to grow at 37° C. for 24 hr in 5% CO2 (culture conditions) in a Nuaire incubator (humidified). Serially diluted compounds (100 μl) were added to the culture plate 24 hr later and the cultures were further incubated in culture conditions for specified time depending on doubling time of specific cell line (ranging from 72-144 hr). Experiment was terminated at the completion of incubation time with the drug by replacing the medium with 100 μl of 1 mM of resazurin (R7017; Sigma) prepared in respective culture medium and the plates were further incubated in culture conditions for 4 hr. Fluorescence was then measured using a multimodal plate reader (Biotek Synergy Neo) at an excitation wavelength of 535 nm and emission wavelength of 590 nm to obtain relative fluorescence units. Data analysis was done by subtracting the background fluorescence (only medium blank) value from each reading and then normalizing with the vehicle control (DMSO treated cells) to obtain percent survival/proliferation. Percent survival at different doses was used to calculate IC50 by fitting the curve to the “four-parameter variable slope logistic model” using Prism Graph Pad.

HCT116 = experiment: Cell viability assay (resazurin), HCT116; format: cell-based; conditions: Homo sapiens, HCT-116, 72-144 hr
Procedure: as §1

22Rv1 = experiment: Cell viability assay (resazurin), 22Rv1; format: cell-based; conditions: Homo sapiens, 72-144 hr
Procedure: as §1

AsPC-1 = experiment: Cell viability assay (resazurin), AsPC-1; format: cell-based; conditions: Homo sapiens, ASPC1, 72-144 hr
Procedure: as §1

Panc-10.05 = experiment: Cell viability assay (resazurin), Panc-10.05; format: cell-based; conditions: Homo sapiens, Panc1005, 72-144 hr
Procedure: as §1

[1] = tested on: phosphorylation of Smad-2 in THP-1 cells; experiment: Inhibition of phosphorylation of Smad-2 in THP-1 cells (Phospho-Smad2 ELISA); format: cell-based
THP1 = experiment: Cell viability assay (resazurin), THP1; format: cell-based; conditions: Homo sapiens, THP-1, 72-144 hr
Procedure: as §1

A427 = experiment: Cell viability assay (resazurin), A427; format: cell-based; conditions: Homo sapiens, A-427, 72-144 hr
Procedure: as §1

A549 = experiment: Cell viability assay (resazurin), A549; format: cell-based; conditions: Homo sapiens, 72-144 hr
Procedure: as §1

human PBMC's = experiment: Viability in CD3e/CD28 activated human PBMC's (resazurin); format: cell-based; conditions: 72 hr
Procedure: IC50 values of compounds for determining viability in CD3e/CD28 activated human PBMC's (hPBMC-34033, Cat # CC-2702; Lonza) cultured in LGM3 medium, Cat # CC #3211; Lonza). Human PBMC's (0.25×10^6 cells/well) were activated with Anti-human CD3e (0.5 μg/ml, coated overnight at 4° C.; Cat #16-0037-81, eBioscience) and then incubated with serial dilutions of compounds (3 fold, 8 point dose response starting at 30 μM) for 30 min at 37° C., 5% CO2 in an incubator (cell culture conditions) prior to treating them with Anti-human CD28 (0.25 μg/ml soluble; Cat #16-0289-81, eBiosciences). Human PBMC's were further incubated under cell culture conditions for 72 hr following which experiment was terminated by replacing the medium with 100 μl of 1 mM of resazurin (R7017; Sigma) prepared in culture medium and the plates were further incubated in culture conditions for 4 hr. Fluorescence was then measured using a multimodal plate reader (Biotek Synergy Neo) at an excitation wavelength of 535 nm and emission wavelength of 590 nm to obtain relative fluorescence units. Data analysis was done by subtracting the background fluorescence (only medium blank) value from each reading and then normalizing with the vehicle control (DMSO treated cells) to obtain percent survival/proliferation. Percent survival at different doses was used to calculate IC50 by fitting the curve to the “four-parameter variable slope logistic model” using Prism Graph Pad.

HepG2 = experiment: Cell viability assay (resazurin), HepG2; format: cell-based; conditions: Homo sapiens, 72-144 hr
Procedure: as §1

ALK 5 = target: T1, ALK 5 (Homo sapiens, UniProt P36897); experiment: In vitro kinase assay (ALK5 IC50, LanthaScreen Terbium labeled TR-FRET); format: biochemical; conditions: TGF-β kinase 6 nM, ATP 10 μM, read-out: Enzyme Activity ALK 5 IC50
T1 sequence (P36897 34-503): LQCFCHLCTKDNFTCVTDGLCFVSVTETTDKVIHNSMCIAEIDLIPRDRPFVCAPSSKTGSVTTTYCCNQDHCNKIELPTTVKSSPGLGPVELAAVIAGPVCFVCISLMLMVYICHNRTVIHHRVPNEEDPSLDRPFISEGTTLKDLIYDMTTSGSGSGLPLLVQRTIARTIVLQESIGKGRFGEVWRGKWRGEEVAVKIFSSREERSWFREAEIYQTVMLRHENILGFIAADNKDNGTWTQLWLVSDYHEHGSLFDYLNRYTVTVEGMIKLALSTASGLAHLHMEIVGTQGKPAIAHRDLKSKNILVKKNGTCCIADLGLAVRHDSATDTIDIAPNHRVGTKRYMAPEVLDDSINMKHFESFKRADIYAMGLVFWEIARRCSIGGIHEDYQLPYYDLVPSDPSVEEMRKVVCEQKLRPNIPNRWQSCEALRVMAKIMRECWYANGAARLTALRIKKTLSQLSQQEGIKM
How it was run: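 LanthaScreen Tb TR-FRET: ALK5 (6 nM) preincubated 10 min with 3-fold diluted compounds, then 10 μM ATP and 200 nM fluorescent PolyGT substrate added for 1 h at room temperature. Stopped with EDTA/Tb antibody; 520/495 nm emission read. IC50 from four-parameter fit versus DMSO and no-enzyme controls.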

[2] = tested on: phosphorylation of Smad-2 in THP-1 cells; experiment: Inhibition of phosphorylation of Smad-2 in THP-1 cells (Phospho-Smad2 ELISA); format: cell-based; conditions: 1.5 h, human TGF-β 20 ng/ml, 90 min, read-out: pSmad2 IC50
Procedure: IC50 values of compounds for determining inhibition of phosphorylation of Smad-2 in THP-1 cells (ATCC, Cat # ATCC® TIB-202™) cultured in RPMI medium, (Cat #22400089; with 10% FBS, Gibco, ThermoFisher). THP-1 cells (1.0×10^6 cells/well; 6 well plate) were incubated with serial dilutions of compounds (3 fold, 5 point dose response starting at 10 μM) for 60 min at 37° C., 5% CO2 in an incubator (cell culture conditions) prior to treating them with Recombinant Human TGF-β (20 ng/ml soluble; Cat #100-21, Peprotech) for 90 min. The cells were then pelleted and processed for protein estimation and evaluation of pSmad using ELISA kit from Cell Signaling (PathScan(R) Phospho-Smad2 (Ser465/467) Sandwich ELISA; Cat #7348C) as per manufacturer's protocol. Data analysis was done by subtracting the background absorbance (only negative control) value from each reading and then normalizing with the vehicle control (DMSO treated cells) to obtain percent levels of pSmad-2. Percent inhibition thus obtained (by subtracting expression levels of pSmad from 100) at different doses was used to calculate IC50 by fitting the curve to the “four-parameter variable slope logistic model” using Prism Graph Pad.

MCF7 = experiment: Cell viability assay (resazurin), MCF7; format: cell-based; conditions: Homo sapiens, 72-144 hr
Procedure: as §1

Panc-1 = experiment: Cell viability assay (resazurin), Panc-1; format: cell-based; conditions: Homo sapiens, 72-144 hr
Procedure: Different cell lines such as pancreatic, (MIA PaCa-2; ATCC®CRL-1420™ & and Panc-1; CRL-1469™), liver carcinoma (HepG2; ATCC® HB-8065™), lung epithelial carcinoma (A549; ATCC® CCL-185™) and others were seeded in their respective medium (DMEM, Cat #10569044, MEM, Cat #41090036; RPMI, Cat #22400089; all with 10% FBS, Gibco, ThermoFisher) at a cell count of 3000 cells per 100 μl per well in a 96 well edge plate (167425; ThermoFisher). Cells were allowed to grow at 37° C. for 24 hr in 5% CO2 (culture conditions) in a Nuaire incubator (humidified). Serially diluted compounds (100 μl) were added to the culture plate 24 hr later and the cultures were further incubated in culture conditions for specified time depending on doubling time of specific cell line (ranging from 72-144 hr). […] Fluorescence was then measured using a multimodal plate reader (Biotek Synergy Neo) at an excitation wavelength of 535 nm and emission wavelength of 590 nm to obtain relative fluorescence units. Data analysis was done by subtracting the background fluorescence (only medium blank) value from each reading and then normalizing with the vehicle control (DMSO treated cells) to obtain percent survival/proliferation. […]

| IC50 (HCT116) | IC50 (22Rv1) | IC50 (AsPC-1) | IC50 (Panc-10.05) | IC50 (THP1) | IC50 (A549) | IC50 (HepG2) | IC50 (ALK 5) | IC50 [2] | IC50 (MCF7) | IC50 (Panc-1) | Structure (SMILES) | IC50 (MDA_MB-231) | % Inhibition of pSmad2 ([1]; 3 μg) | % Inhibition of pSmad2 ([1]; 10 μg) | IC50 (A427) | IC50 (human PBMC's) |
| --- | --- | --- | --- | --- | --- | --- | --- | --- | --- | --- | --- | --- | --- | --- | --- | --- |
| 2640 nM | 1530 nM | 1820 nM | 2200 nM | 635 nM | 2760 nM | 2640 nM | ≤ 500 nM | – | – | – | CN(C)c1[nH]c(=O)c(-c2cc(Cl)ccc2F)cc1Nc1ccnc2[nH]ccc12 [Compound 1.12, 5-((1H-pyrrolo[2,3-b]pyridin-4-yl)amino)-3-(5-chloro-2-fluorophenyl)-6-(dimethylamino)pyridin-2-ol hydrochloride] | 2750 nM | 51.6% | 48.4% | 3100 nM | 18200 nM |
| > 30000 nM | – | > 30000 nM | – | – | – | > 30000 nM | ≤ 500 nM | 1330 nM | > 30000 nM | – | CC(C)c1[nH]c(=O)c(-c2cc(Cl)ccc2F)cc1Nc1ccnc2c1CC(=O)N2 [Compound 1.61, 4-((5-(5-chloro-2-fluorophenyl)-2-isopropyl-6-oxo-1,6-dihydropyridin-3-yl)amino)-1,3-dihydro-2H-pyrrolo[2,3-b]pyridin-2-one] | > 30000 nM | – | – | – | – |
| – | > 30000 nM | – | – | – | > 30000 nM | > 30000 nM | ≤ 500 nM | – | > 10000 nM | > 30000 nM | CC(C)c1[nH]c(=O)c(-c2cc(Cl)ccc2F)cc1Nc1ccncc1C(N)=O [Compound 1.43, 4-((5-(5-chloro-2-fluorophenyl)-2-isopropyl-6-oxo-1,6-dihydropyridin-3-yl)amino)nicotinamide] | > 30000 nM | – | – | > 30000 nM | > 30000 nM |
